Assay results published in US20240376098A1, “METHODS OF TREATMENT USING BCN057, BCN077 AND ANALOGS” (BCN Biosciences L.L.C., priority 2021, published 2024).

Tests used:
[1] = system: pancreatic ductal adenocarcinoma cells (AsPC-1, BxPC-3, MIA PaCa-2 and Panc-1); conditions: range over AsPC-1, BxPC-3, MIA PaCa-2 and Panc-1; limits printed in nM and μM; cited from earlier work
[2] = system: KRAS mutant G12D invasive pancreatic cancer cell lines; test: Proliferation of pancreatic cancer cell lines with analogues of BCN057; type: cell-based
[3] = system: human KRAS G12D mutant colorectal cancer cell line LS174T; test: Viability of LS174T colorectal cancer cells; type: cell-based; conditions: viability versus concentration
Text: FIG. 9 is a graph of viability versus concentration of BCN077.

[4] = system: Lgr5+ ISCs; test: Lgr5+ intestinal stem cells in 5FU treated Lgr5-Cre-ERT-GFP mice; type: in vivo; conditions: 5FU treated mice, confocal microscopic imaging
Method: 5FU is a component of FOLFIRINOX and the active agent metabolized from Capecitabine (Xeloda®). To, examine the effect of BCN057 against chemo induced toxicity in Lgr5+ ISCs, Lgr5-Cre-ERT-GFP mice were pre-treated with 5FU as reported and then subjected to BCN057 treatment.
Stains of GI crypts with green=LGR5+ stem cells. Mice were treated with 5FU and 5FU+BCN057 for 5 days. BCN057 was administered for two extra days after 5FU treatment. Small intestine samples were harvested and stained for LGR5 at 3 days after the last 5FU injection. FIG. 5D is a histogram of the quantitation by % of LGR5+ cells remaining in […] sections at the crypt base showing prevention of 5-FU induced apoptosis in LGR5+ stem cells in GI.

[5] = system: PD-1 expression on human T-lymphocytes; test: Western blot of PD-1 on T-lymphocytes co-cultured with Panc-1 cells; type: cell-based; conditions: 15 minutes to 24 hours
Method: Cell lines and cell culture: Panc-1 cells were cultured in DMEM medium supplemented with 10% Fetal Bovine Serum and maintained at 37° C.5% CO2. Human Peripheral Blood Pan-T Cells were cultured in serum free T cells expansion media with 10 ng/ml of rhIL-2, T-cell activator and expanded as per the manufacturer instructions. Panc-1 cells and T-Cells were grown and expanded separately in T75 flasks. For co-culture experiments with Panc-1 cell, 2.5 million T-cells per well were plated in the well using a 6 well plate. 2.5 million Panc-1 Cells were plated in the thinsert which was placed into the well of the 6 well plate in order to have the cells physically separated but share media. The cells were incubated for 24 hours at 37° C., 5% CO2. At 24 hours the media was replaced with media containing vehicle, or 10 uM BCN057 and were incubated for the following timepoints: 1 hr, 6 hr, 12 hr, 24 hrs. The Panc-1 cells were removed by gently scraping the cells from the thinsert.
Western Blot: Cells were harvested and lysed in cell lysis buffer on ice for 15 minutes and the lysate was centrifuged at 13,000 rpm at 4° C. for 10 minutes. The supernatant was transferred into a new tube for BCA protein quantification assay (Thermo Fisher Scientific) and the samples were normalized. 3× loading buffer (Cell Signaling) was added the protein sample and boiled for 5 minutes. The samples were used for SDS-PAGE analysis and transferred to nitrocellulose membrane. The membrane was blocked with 5% BSA at room temperature for 1 hour and incubated with primary antibody at 4° C. overnight. The membrane was washed with 1×TBST 5 minutes for 3 times and incubated with horseradish peroxidase-conjugated secondary antibody for 1 hour at room temperature. The protein was visualized by SuperSignal West Pico Stable Peroxide Solution (Thermo Fisher Scientific). The blot was visualized by chemiluminescence using a BioRad Versadoc Imaging System.
BCN057 and Immune Checkpoint blockade: An emerging method of treatment for many forms of cancer, including PDAC, is immune checkpoint inhibitors. […]

In the case of `Nc1ccn([C@@H]2O[C@H](CO)[C@@H](O)C2(F)F)c(=O)n1` [gemcitabine], the IC50 [1] is given as 494 to 23900 nM.

For `COc1ccc2cc(-c3nc4c(C)cccn4c3NC(=O)c3cccc(F)c3)c(=O)[nH]c2c1` [BCN077], the “Proliferation of KRAS mutant G12D invasive pancreatic cancer cell lines” value (from here on “Proliferation”) [2] was “inhibition of proliferation” and the “Activity on viability of LS174T” value [3] was “potent activity”.

For `O=c1[nH]cc(F)c(=O)[nH]1` [5FU, 5-Fluorouracil, reference compound], the “Lgr5+ ISCs in jejunal section” value [4] was “significant loss of Lgr5+ ISCs”.

In the case of `CONCCC(=O)Nc1c(-c2cc3ccc(OC)cc3[nH]c2=O)nc2c(C)cccn12` [BCN036], the “Proliferation” value [2] is reported as “inhibition of proliferation” and the “PD1 expression in co-culture of T-cells and Panc1 cells” value [5] is reported as “inhibit PD1 expression over time”.

For `CNCCC(=O)Nc1c(-c2cc3ccc(OC)cc3[nH]c2=O)nc2c(C)cccn12.Cl` [BCN076], the “Proliferation” value [2] was “inhibition of proliferation” and the “PD1 expression in co-culture of T-cells and Panc1 cells” value [5] was “inhibit PD1 expression over time”.
